Measurements from ChEMBL document CHEMBL1131586, “New antipsychotic agents with serotonin and dopamine antagonist properties based on a pyrrolo[2,1-b][1,3]benzothiazepine structure” (J Med Chem, 1998).

Experiments:
[1] = molecular target: D(3) dopamine receptor (Rattus norvegicus, UniProt P19020)
Description: Binding affinity which represents concentration giving half-maximal inhibition of [3H]7-OH-DPAT binding to Dopamine receptor D3 in rat tissue homogenate

[2] = molecular target: Sodium-dependent dopamine transporter (Rattus norvegicus) (UniProt P23977); assay: Inhibition of dopamine uptake from dopamine uptake site
[3] = system: Rattus norvegicus; assay: Effect of compound on […], […] at 10 umol/kg upon subcutaneous administration; Catalepsy = 1/4; format: functional
[4] = system: Rattus norvegicus; assay: Effect of compound on […], […] at 3 umol/kg upon subcutaneous administration; Catalepsy = 0/4; format: functional
[5] = system: Rattus norvegicus; assay: Effect of compound on […], […] at 30 umol/kg upon subcutaneous administration; Catalepsy = 4/4; format: functional
[6] = system: Rattus norvegicus; assay: Effect of compound on apomorphine induced locomotor hyperactivity (APO-induced LMA), […] at 10 umol/kg upon subcutaneous administration; LMA (locomotor activity); format: functional
[7] = system: Rattus norvegicus; assay: Effect of compound on apomorphine induced locomotor hyperactivity (APO-induced LMA), […] at 3 umol/kg upon subcutaneous administration; LMA (locomotor activity); format: functional
[8] = system: Rattus norvegicus; assay: Effect of compound on apomorphine induced locomotor hyperactivity (APO-induced LMA), […] at 30 umol/kg upon subcutaneous administration; LMA (locomotor activity); format: functional
[9] = system: Rattus norvegicus; assay: Effect of compound on apomorphine induced locomotor hyperactivity (APO-induced LMA), […] at 1 umol/kg upon subcutaneous administration; LMA (locomotor activity); format: functional
[10] = system: Rattus norvegicus; assay: Effect of compound on […], […] at 1 umol/kg upon subcutaneous administration; Catalepsy = 0/4; format: functional
[11] = system: Rattus norvegicus; assay: Effect of compound on […], […] at 10 umol/kg upon subcutaneous administration; Catalepsy = 0/4; format: functional
[12] = system: Rattus norvegicus; assay: Effect of compound on […], […] at 30 umol/kg upon subcutaneous administration; Catalepsy = 0/4; format: functional
[13] = molecular target: T1, Serotonin 2 (5-HT2) receptor (Rattus norvegicus, UniProt P30994+P08909+P14842)
Description: pKi value for 5-hydroxytryptamine 2 receptor binding site

[14] = molecular target: T1, Serotonin 2 (5-HT2) receptor; remark: listed apart in the source
Description: Binding affinity which represents concentration giving half-maximal inhibition of [3H]ketanserin binding to 5-hydroxytryptamine 2 receptor rat tissue homogenate

Sodium-dependent dopamine transporter (Rattus norvegicus), sequence (P23977 whole entry, looked up): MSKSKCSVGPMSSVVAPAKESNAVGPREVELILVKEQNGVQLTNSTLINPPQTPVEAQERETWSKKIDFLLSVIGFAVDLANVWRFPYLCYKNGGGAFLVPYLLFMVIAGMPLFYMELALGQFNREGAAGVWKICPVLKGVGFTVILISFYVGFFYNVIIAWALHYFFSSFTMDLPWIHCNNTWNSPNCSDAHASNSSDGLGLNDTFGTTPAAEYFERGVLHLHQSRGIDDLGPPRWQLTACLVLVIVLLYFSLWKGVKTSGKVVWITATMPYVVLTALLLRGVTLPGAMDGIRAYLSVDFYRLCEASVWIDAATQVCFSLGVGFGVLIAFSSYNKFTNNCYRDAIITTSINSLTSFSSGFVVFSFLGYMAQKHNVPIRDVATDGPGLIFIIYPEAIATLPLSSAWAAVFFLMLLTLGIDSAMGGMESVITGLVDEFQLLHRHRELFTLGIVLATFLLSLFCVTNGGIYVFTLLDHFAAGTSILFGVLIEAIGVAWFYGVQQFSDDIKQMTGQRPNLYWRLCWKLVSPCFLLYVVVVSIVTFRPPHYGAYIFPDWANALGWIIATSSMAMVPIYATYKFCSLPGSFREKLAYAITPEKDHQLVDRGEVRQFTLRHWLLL
D(3) dopamine receptor, sequence (P19020 whole entry): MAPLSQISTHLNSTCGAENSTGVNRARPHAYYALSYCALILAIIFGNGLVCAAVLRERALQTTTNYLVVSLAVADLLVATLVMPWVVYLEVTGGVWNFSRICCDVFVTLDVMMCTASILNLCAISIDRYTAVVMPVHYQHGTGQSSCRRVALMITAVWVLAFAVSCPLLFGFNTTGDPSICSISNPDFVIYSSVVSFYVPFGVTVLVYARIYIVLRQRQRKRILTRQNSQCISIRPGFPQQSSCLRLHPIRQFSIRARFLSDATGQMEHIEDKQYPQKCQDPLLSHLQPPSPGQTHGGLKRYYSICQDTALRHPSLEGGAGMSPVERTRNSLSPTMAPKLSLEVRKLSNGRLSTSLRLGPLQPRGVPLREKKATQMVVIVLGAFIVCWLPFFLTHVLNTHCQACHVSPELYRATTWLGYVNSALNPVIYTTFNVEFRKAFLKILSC

Row | Compound | Ki [1] | IC50 [2] | Catalepsy [3] | Catalepsy [4] | Catalepsy [5] | LMA [6] | LMA [7] | LMA [8] | LMA [9] | Catalepsy [10] | Catalepsy [11] | Catalepsy [12] | Log Ki [13] | Ki [14]
1 | CN1CCN(C2Cn3cccc3Sc3ccc(Cl)cc32)CC1 (racemic) | 4.1 nM | 6500 nM | – | – | – | – | – | – | – | – | – | – | – | –
2 | CN1CCN(C2Cn3cccc3Sc3ccc(Cl)cc32)CC1.Cl.Cl (racemic) | – | – | 1 | 0 | 4 | 43 | 40 | 39 | 877 | 0 | – | – | – | –
3 | Cc1cc2c(s1)Nc1ccccc1N=C2N1CCN(C)CC1 [OLANZAPINE] | – | – | – | – | – | 47 | – | 4 | 323 | 0 | 0 | 0 | -7.9 | 12 nM
